# Read-outs that look alike come from different tables or passages of the source.
# Assays:
# S. pneumoniae D39 [1] = test: Membrane potential, DiOC2(3) fluorescence; type: cell-based, Streptococcus pneumoniae; conditions: 16 μg/ml, pre-incubated 5 min; versus untreated and ampicillin
# Experimental: To further examine the mechanism underlying the perturbation of the cell membrane of S. pneumoniae or S. aureus by the NCL compounds, the membrane potential of the cells was measured by fluorescence spectrometry using (DiOC2(3), essentially as described previously. Briefly, […] cells from an overnight HBA plate were grown in Todd-Hewitt broth supplemented with 1% yeast extract (THY) at 37°C, 5% CO2 until A600 nm = 0.5. […] The cuvette was then placed in a LS 55 Fluorescence Spectrometer (PerkinElmer) set at Ex. 488 nm/Em. 620 nm, with excitation and emission slit widths at 5 nm and 7 nm, respectively). […] All assays were performed at least twice.
# S. aureus = test: MIC, broth micro-dilution (CLSI); type: cell-based, Staphylococcus aureus; conditions: for MIC / MIC50 / MIC90: Staphylococcus aureus
# S. aureus Xen29 = test: Minimum bactericidal concentration (MBC); type: cell-based; conditions: Staphylococcus aureus, 99.9% colony count reduction
# Experimental: The tray was covered with Breathe-Easy sealing membrane (Z380059, Sigma-Aldrich) and incubated for 16 h overnight at 35°C in an EnSpire Multimode Plate Reader 2300 (PerkinElmer), with data collected every 20 min and 2 sec agitation at 60 rpm between data (A600 nm) acquisitions. The experiment was repeated using the luminescent D39LUX strain on a Cytation 5 Cell Imaging Multi-Mode Reader (BioTek) using IsoplateTM-96 F tray PerkinElmer, 6005020). Kill kinetic assays on S. aureus Xen29 was carried out essentially as described for MIC determination on Cytation 5 Cell Imaging Multi-Mode Reader.
# In order to determine the MBC of each compound against S. pneumoniae D39 or S. aureus Xen29, 10 μl aliquots from each duplicate well from the MIC assays (starting from the MIC for each compound) was inoculated onto a HBA plate and incubated at 37°C (+ 5% CO2 for S. pneumoniae D39). Plates were examined at 24 and 48 h and the MBC was recorded as the lowest concentration of each test compound at which a 99.9% colony count reduction was observed on the plate.
# S. pneumoniae D39 [2] = test: Minimum bactericidal concentration (MBC); type: cell-based; conditions: Streptococcus pneumoniae, 99.9% colony count reduction, read-out: MBC
# Hep G2 = test: Real-time cell viability, RealTime-Glo MT; type: cell-based, human; conditions: 2 or 8 μg/ml, up to 20 h post-treatment
# S. pneumoniae = test: MIC, broth micro-dilution (CLSI); type: cell-based, Streptococcus pneumoniae; conditions: 21 isolates
# [3] = S2 Table isolates, absence of FBS
smiles,measurement,setting,value
"Cc1ccc(/C=N/Nc2cc(N/N=C/c3ccc(C)cc3)nc(N)n2)cc1 [NCL195, 4,6-bis(2-((E)-4-methylbenzylidene)hydrazinyl)pyrimidin-2-amine]",Effect on generated membrane potential,S. pneumoniae D39 [1],large reduction in the magnitude of the generated membrane potential
same,Fold increase of MIC range in the presence of 10% FBS,S. aureus; 10% FBS versus no FBS,4 fold
same,MIC range,S. aureus; 23 isolates,1 to 2 µg/mL
same,MIC range,"S. aureus; S2 Table isolates, 10% FBS",4 to 8 µg/mL
same,MIC range,S. aureus; [3],1 to 2 µg/mL
same,Fold increase in MIC in the presence of serum,"S. aureus; S. aureus 49775, human, horse or mouse serum",4 fold
same,MIC,"S. aureus; ATCC 12600 / MSSA, ATCC12600 [Xen29] (MSSA), 10% FBS",4 µg/mL
same,MIC,"S. aureus; ATCC 12600 / MSSA, ATCC12600 [Xen29] (MSSA), absence of FBS",1 µg/mL
same,MIC,"S. aureus; ATCC 29213 / MSSA, ATCC29213 MSSA (ST5), 10% FBS, read-out: MIC",8 µg/mL
same,MIC,"S. aureus; ATCC 29213 / MSSA, ATCC29213 MSSA (ST5), absence of FBS, read-out: MIC",2 µg/mL
same,MIC,"S. aureus; ATCC 49775 / MSSA, ATCC 49775 (MSSA), 10% FBS, read-out: MIC",8 µg/mL
same,MIC,"S. aureus; ATCC 49775 / MSSA, ATCC 49775 (MSSA), absence of FBS, read-out: MIC",2 µg/mL
same,MIC,"S. aureus; IRISH 1 – HA-EMRSA (ST8), 10% FBS, read-out: MIC",8 µg/mL
same,MIC,"S. aureus; IRISH 1 – HA-EMRSA (ST8), absence of FBS, read-out: MIC",2 µg/mL
same,MIC,"S. aureus; IRISH 2 – HA-EMRSA (ST8), 10% FBS, read-out: MIC",4 µg/mL
same,MIC,"S. aureus; IRISH 2 – HA-EMRSA (ST8), absence of FBS, read-out: MIC",1 µg/mL
same,MIC,"S. aureus; MRSA / USA300, USA 300 - MRSA (ST8), 10% FBS, read-out: MIC",8 µg/mL
same,MIC,"S. aureus; MRSA / USA300, USA 300 - MRSA (ST8), absence of FBS, read-out: MIC",2 µg/mL
same,MIC,"S. aureus; MRSA, AUS2-MRSA (ST239), 10% FBS, read-out: MIC",8 µg/mL
same,MIC,"S. aureus; MRSA, AUS2-MRSA (ST239), absence of FBS, read-out: MIC",2 µg/mL
same,MIC,"S. aureus; MRSA, AUS3-MRSA (ST239), 10% FBS, read-out: MIC",4 µg/mL
same,MIC,"S. aureus; MRSA, AUS3-MRSA (ST239), absence of FBS, read-out: MIC",1 µg/mL
same,MIC,"S. aureus; MRSA, Classic–HA-MRSA (ST250), 10% FBS, read-out: MIC",8 µg/mL
same,MIC,"S. aureus; MRSA, Classic–HA-MRSA (ST250), absence of FBS, read-out: MIC",2 µg/mL
same,MIC,"S. aureus; MRSA, NY JAPAN – HA MRSA (ST5), 10% FBS, read-out: MIC",4 µg/mL
same,MIC,"S. aureus; MRSA, NY JAPAN – HA MRSA (ST5), absence of FBS, read-out: MIC",1 µg/mL
same,MIC,"S. aureus; MRSA, ST398–CA-MRSA-V (ST398), 10% FBS, read-out: MIC",8 µg/mL
same,MIC,"S. aureus; MRSA, ST398–CA-MRSA-V (ST398), absence of FBS, read-out: MIC",2 µg/mL
same,MIC,"S. aureus; MRSA, WA2–CA-MRSA (ST78), 10% FBS, read-out: MIC",4 µg/mL
same,MIC,"S. aureus; MRSA, WA2–CA-MRSA (ST78), absence of FBS, read-out: MIC",1 µg/mL
same,MIC,"S. aureus; MRSA, WA3–CA-MRSA (ST5), 10% FBS, read-out: MIC",4 µg/mL
same,MIC,"S. aureus; MRSA, WA3–CA-MRSA (ST5), absence of FBS, read-out: MIC",1 µg/mL
same,MIC,"S. aureus; MRSA, WA84–CA-MRSA (ST45), 10% FBS, read-out: MIC",4 µg/mL
same,MIC,"S. aureus; MRSA, WA84–CA-MRSA (ST45), absence of FBS, read-out: MIC",1 µg/mL
same,MIC50,"S. aureus; S2 Table isolates, 10% FBS",8 µg/mL
same,MIC90,"S. aureus; S2 Table isolates, 10% FBS",8 µg/mL
same,MIC50,S. aureus; [3],2 µg/mL
same,MIC90,S. aureus; [3],2 µg/mL
same,MIC,"S. aureus; TAIWAN PVL+ – CA-cMRSA (ST59), 10% FBS, read-out: MIC",4 µg/mL
same,MIC,"S. aureus; TAIWAN PVL+ – CA-cMRSA (ST59), absence of FBS, read-out: MIC",1 µg/mL
same,MIC,"S. aureus; UK 15 PVL+ – HA-EMRSA (ST22), 10% FBS, read-out: MIC",8 µg/mL
same,MIC,"S. aureus; UK 15 PVL+ – HA-EMRSA (ST22), absence of FBS, read-out: MIC",2 µg/mL
same,MIC,"S. aureus; UK 15 – HA-EMRSA (ST22), 10% FBS, read-out: MIC",8 µg/mL
same,MIC,"S. aureus; UK 15 – HA-EMRSA (ST22), absence of FBS, read-out: MIC",2 µg/mL
same,MIC,"S. aureus; UK 16 – HA- EMRSA (ST36), 10% FBS, read-out: MIC",4 µg/mL
same,MIC,"S. aureus; UK 16 – HA- EMRSA (ST36), absence of FBS, read-out: MIC",1 µg/mL
same,MIC,"S. aureus; UK 17 – HA-EMRSA (ST247), 10% FBS, read-out: MIC",8 µg/mL
same,MIC,"S. aureus; UK 17 – HA-EMRSA (ST247), absence of FBS, read-out: MIC",2 µg/mL
same,MBC,S. aureus Xen29,2 µg/mL
same,MBC,S. pneumoniae D39 [2],8 µg/mL
same,Effect on cell viability (real-time),Hep G2,no measurable effect on cell viability
same,MIC range,S. pneumoniae,2 to 8 µg/mL

# Source: PMC5584945, “Evaluation of robenidine analog NCL195 as a novel broad-spectrum antibacterial agent” (PLoS ONE, 2017)
